The source of these data is patent publication US9302999B2, “Substituted triazoles as herbicides” (E. I. DU PONT DE NEMOURS AND COMPANY, priority 2012, dated 2016).

Common to all, as to format: in vivo
The subject of assay [1] is ducksalad (Heteranthera limosa). Put plainly: Test C flooded paddy test: ducksalad. The conditions noted are these: Heteranthera limosa, scale 0 to 100 (0 no effect, 100 complete control), read-out: Plant response rating, Ducksalad; for pest or weed control at 62 g/ha: 62 g ai/ha; for pest or weed control at 250 g/ha: 250 g ai/ha; for pest or weed control at 125 g/ha: 125 g ai/ha. The method, boiled down:
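Greenhouse plants treated at the 2-leaf stage by dosing the flood water (3 cm depth, maintained) were compared with controls after 13 to 15 days and rated 0 to 100, where 100 means complete control; a dash marks no test result.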

For assay [2], the system named is canarygrass (Phalaris minor). Put plainly: Test D pre-/postemergence: canarygrass. The text has this: (§1) Seeds of plant species selected from bluegrass (annual bluegrass, Poa annua), blackgrass (Alopecurus myosuroides), canarygrass (Phalaris minor), chickweed (common chickweed, Stellaria media), galium (catchweed bedstraw, Galium aparine), bromegrass, downy (downy bromegrass, Bromus tectorum), field poppy (Papaver rhoeas), field violet (Viola arvensis), foxtail, green (green foxtail, Setaria viridis), deadnettle (henbit deadnettle, Lamium amplexicaule), ryegrass, Italian (Italian ryegrass, Lolium multiflorum), kochia (Kochia scoparia), lambsquarters (Chenopodium album), oilseed rape (Brassica napus), pigweed (Amaranthus retroflexus), Russian thistle (Salsola iberica), chamomile (scentless chamomile, Matricaria inodora), speedwell (bird's-eye speedwell, Veronica persica), barley, spring (spring barley, Hordeum vulgare), wheat, spring (spring wheat, Triticum aestivum), buckwheat, wild (wild buckwheat, Polygonum convolvulus), mustard, wild (wild mustard, Sinapis arvensis), oat, wild (wild oat, Avena fatua), radish, wild (wild radish, Raphanus raphanistrum), windgrass (Apera spica-venti), barley, winter (winter barley, Hordeum vulgare), and wheat, winter (winter wheat, Triticum aestivum) were planted into a silt loam soil and treated preemergence with test chemicals formulated in a non-phytotoxic solvent mixture which included a surfactant. At the same time, these same crop and weed species were planted in pots containing the planting medium comprising spaghnum peat moss, vermiculite, wetting agent and starter nutrients and treated with postemergence applications of the test chemicals formulated in the same manner. Plants ranged in height from 2 to 18 cm (1- to 4-leaf stage).
(§2) Treated plants and controls were maintained in a controlled growth environment for 14 to 21 days after which time all species were compared to controls and visually evaluated. Plant response ratings, summarized in Table D, are based on a scale of 0 to 100 where 0 is no effect and 100 is complete control. A dash (-) response means no test result.

Assay [3] concerns deadnettle (henbit deadnettle, Lamium amplexicaule). Put plainly: Test D pre-/postemergence: deadnettle.
Source text: as §1, §2

Assay [4] has as its system lambsquarters (Chenopodium album). In words: Test D pre-/postemergence: lambsquarters.
Source text: as §1, §2

Assay [5] relates to field poppy (Papaver rhoeas). In words: Test D pre-/postemergence: field poppy.
Source text: as §1, §2

The mark [6] stands for this setting: Flood (flooded paddy test), visual rating after 13 to 15 days.
Setting [7] is: Postemergence, 31 g ai/ha, scale 0 to 100 (0 no effect, 100 complete control).
Where [8] appears, read: Postemergence, 62 g ai/ha, scale 0 to 100 (0 no effect, 100 complete control).
Where [9] appears, read: Postemergence, 125 g ai/ha, scale 0 to 100, 0 no effect, 100 complete control.
The mark [10] stands for this setting: Postemergence, 250 g ai/ha, scale 0 to 100 (0 no effect, 100 complete control).
[11] abbreviates: Preemergence, 31 g ai/ha, scale 0 to 100, 0 no effect, 100 complete control.
[12] abbreviates: Preemergence, 62 g ai/ha, scale 0 to 100.
Where [13] appears, read: Preemergence, 125 g ai/ha, scale 0 to 100.
The mark [14] stands for this setting: Preemergence, 250 g ai/ha, scale 0 to 100.
[15] abbreviates: Postemergence, 16 g ai/ha, scale 0 to 100.
Setting [16] is: Preemergence, 16 g ai/ha, scale 0 to 100, 0 no effect, 100 complete control.

Each structure is given as a SMILES string. Read-outs that look alike come from different tables or passages of the source.

With `Cc1nn(-c2ccc(C(F)(F)F)cc2)nc1Oc1csc(C(F)(F)F)c1` [Compound 1, 4-methyl-2-[4-(trifluoromethyl)phenyl]-5-[[5-(trifluoromethyl)-3-thienyl]oxy]-2H-1,2,3-triazole], in assay [1] (setting [6]), the pest or weed control at 62 g/ha came to 0% and the pest or weed control at 250 g/ha is 0%.

As to `FC(F)(F)COc1nn(-c2ccc(C(F)(F)F)cc2)nc1Cc1ccnc(C(F)(F)F)c1` [Compound 14, 4-[[5-(2,2,2-trifluoroethoxy)-2-[4-(trifluoromethyl)phenyl]-2H-1,2,3-triazol-4-yl]methyl]-2-(trifluoromethyl)pyridine], the pest or weed control at 62 g/ha in assay [1] (setting [6]) amounted to 40%. In addition, the pest or weed control at 250 g/ha in assay [1] (setting [6]) came out at 60%. The “Plant response rating: Canarygrass” value in assay [2] (setting [7]) amounted to 25; in assay [2] (setting [8]), 40; in assay [2] (setting [9]), 55; in assay [2] (setting [10]), 80. The “Plant response rating, Canarygrass” value in assay [2] (setting [11]) turned out to be 10; in assay [2] (setting [12]), 25; in assay [2] (setting [13]), 90; in assay [2] (setting [14]), 98. For the same compound, the “Plant response rating: Deadnettle” value in assay [3] (setting [7]) stood at 25; in assay [3] (setting [8]), 40; in assay [3] (setting [9]), 100; in assay [3] (setting [10]) it was 100. Moreover, the “Plant response rating, Deadnettle” value is given as 60 in assay [3] (setting [11]), 70 in assay [3] (setting [12]), 100 in assay [3] (setting [13]) and 100 in assay [3] (setting [14]). The “Plant response rating: Lambsquarters” value in assay [4] (setting [7]) stood at 80; in assay [4] (setting [8]) it was 80; in assay [4] (setting [9]) it was 100; in assay [4] (setting [10]), 100. For the same compound, the “Plant response rating, Lambsquarters” value in assay [4] (setting [11]) was 0; in assay [4] (setting [12]), 40; in assay [4] (setting [13]) it was 60; in assay [4] (setting [14]) it was 75. Also, the “Plant response rating: Field Poppy” value in assay [5] (setting [7]), in assay [5] (setting [8]), in assay [5] (setting [9]) and in assay [5] (setting [10]) was 100 throughout.

Turning to `COCc1nn(-c2ccc(C(F)(F)F)cc2)nc1Oc1cccc(OC(F)(F)F)c1` [Compound 115, 4-(methoxymethyl)-5-[3-(trifluoromethoxy)phenoxy]-2-[4-(trifluoromethyl)phenyl]-2H-1,2,3-triazole], in assay [1] (setting [6]), the pest or weed control at 125 g/ha came out at 0% and the pest or weed control at 250 g/ha was 20%. Moreover, the pest or weed control at 62 g/ha in assay [1] (Flood) worked out at 0%.

For the compound `FCc1nn(-c2ccc(C(F)(F)F)cc2)nc1Oc1cccc(OC(F)(F)F)c1` [Compound 116, 4-(fluoromethyl)-5-[3-(trifluoromethoxy)phenoxy]-2-[4-(trifluoromethyl)phenyl]-2H-1,2,3-triazole], in assay [1] (setting [6]), the pest or weed control at 125 g/ha turned out to be 30% and the pest or weed control at 250 g/ha is 50%. Also, the pest or weed control at 62 g/ha in assay [1] (Flood) is 0%.

For the compound `COc1nn(-c2ccc(C(F)(F)F)cc2)nc1Cc1ccnc(C(F)F)c1` [Compound 138], the “Plant response rating: Canarygrass” value in assay [2] (setting [7]) amounted to 25; in assay [2] (setting [8]), 30; in assay [2] (setting [9]) it was 50; in assay [2] (setting [10]), 80. In assay [2] (setting [15]), the “Plant response rating, Canarygrass” value worked out at 10. The “Plant response rating: Deadnettle” value in assay [3] (setting [7]) came out at 50; in assay [3] (setting [8]) it was 75; in assay [3] (setting [9]), 80; in assay [3] (setting [10]) it was 95. For the same compound, the “Plant response rating, Deadnettle” value in assay [3] (setting [15]) is 50. The “Plant response rating: Lambsquarters” value in assay [4] (setting [7]) stood at 80; in assay [4] (setting [8]) it was 90; in assay [4] (setting [9]), 95; in assay [4] (setting [10]), 100. In assay [4] (setting [15]), the “Plant response rating, Lambsquarters” value was found to be 70. The “Plant response rating: Field Poppy” value amounted to 90 in assay [5] (setting [7]), 90 in assay [5] (setting [8]), 100 in assay [5] (setting [9]) and 100 in assay [5] (setting [10]). Further, in assay [5] (setting [15]), the “Plant response rating, Field Poppy” value stood at 80.

With `Cc1nn(-c2ccc(F)c(C(F)(F)F)c2)nc1Cc1ccnc(C(F)(F)F)c1` [Compound 156], the figures for the “Plant response rating: Canarygrass” value in assay [2] (setting [7]), in assay [2] (setting [8]) and in assay [2] (setting [9]) were 30, 65 and 80, respectively. Further, the “Plant response rating, Canarygrass” value stood at 15 in assay [2] (setting [15]); 15 in assay [2] (setting [16]); 70 in assay [2] (setting [11]); 100 in assay [2] (setting [12]); 100 in assay [2] (setting [13]). For the same compound, the “Plant response rating: Deadnettle” value was determined as 85 in assay [3] (setting [7]), 100 in assay [3] (setting [8]) and 100 in assay [3] (setting [9]). Further, the “Plant response rating, Deadnettle” value in assay [3] (setting [15]) was 70; in assay [3] (setting [16]), 5; in assay [3] (setting [11]) it was 15; in assay [3] (setting [12]) it was 100; in assay [3] (setting [13]), 100. The “Plant response rating: Lambsquarters” value in assay [4] (setting [7]) stood at 90; in assay [4] (setting [8]), 85; in assay [4] (setting [9]), 95. Moreover, the “Plant response rating, Lambsquarters” value amounted to 85 in assay [4] (setting [15]); 25 in assay [4] (setting [16]); 30 in assay [4] (setting [11]); 85 in assay [4] (setting [12]); 100 in assay [4] (setting [13]). For the same compound, the “Plant response rating: Field Poppy” value in assay [5] (setting [7]), in assay [5] (setting [8]) and in assay [5] (setting [9]) was 100 in each case. Moreover, the “Plant response rating, Field Poppy” value is listed as 85 in assay [5] (setting [15]); 85 in assay [5] (setting [16]); 100 in assay [5] (setting [11]); 95 in assay [5] (setting [12]); 100 in assay [5] (setting [13]).
